Assay results taken from patent US20240174618A1, “SUBSTITUTED (2-HETEROARYLOXYPHENYL)SULFONATES, SALTS THEREOF AND THEIR USE AS HERBICIDAL AGENTS” (Bayer Aktiengesellschaft, priority 2021, published 2024).

Assays:
Assay type in all cases: in vivo
Stellaria media (STEME) = experiment: A. Herbicidal pre-emergence efficacy, STEME
Method in brief: (§1)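 Pre-emergence soil-surface spray in sandy loam pots, WP/EC in water plus 0.5% additive, 600 L/ha. Visual % damage rating after about 3 weeks in greenhouse vs. untreated; 0% = control-like, 100% = dead plants. Rates up to 1280 g/ha.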

[1] = test system: Amaranthus retroflexus (AMARE); experiment: B. Herbicidal post-emergence efficacy, AMARE
Method in brief: (§2)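 Post-emergence greenhouse test: one-leaf-stage plants, compound (WP/EC, +0.5% additive, 600 L/ha water, ≤1280 g/ha) applied to green parts; % efficacy scored visually vs untreated after ~3 wk; 100% = plants died.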

Veronica persica (VERPE) [2] = experiment: B. Herbicidal post-emergence efficacy, VERPE
Method in brief: as §2

[3] = test system: Abutilon theophrasti (ABUTH); experiment: C. Herbicidal pre-emergence efficacy, ABUTH; conditions: scored after about 3 weeks
Method in brief: (§3)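 Pre-emergence test: formulated compounds sprayed as aqueous suspension or emulsion with 0.5% additive at 600 l/ha onto soil covering sown seeds, at rates corresponding to 320 g/ha or less. After about 3 weeks in greenhouse, efficacy scored visually as percent versus untreated controls (100% = plants dead).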

Veronica persica (VERPE) [4] = experiment: A. Herbicidal pre-emergence efficacy, VERPE; conditions: for Pre-emergence efficacy against VERPE: dosage 80 g/ha
Method in brief: as §1

Setaria viridis (SETVI) = experiment: C. Herbicidal pre-emergence efficacy, SETVI; conditions: scored after about 3 weeks
Method in brief: as §3

[5] = test system: Pharbitis purpurea (PHBPU); experiment: E. Herbicidal post-emergence efficacy, PHBPU
Method in brief: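 Greenhouse post-emergence spray, one-leaf stage (2–3 wk after sowing, sandy loam); WP/EC formulation, aqueous + 0.5% additive, 600 l/ha water; rates 320 g/ha or less. Visual rating ~3 wk later vs untreated; 0% = control-like, 100% = dead.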

[6] = test system: Digitaria sanguinalis (DIGSA); experiment: C. Herbicidal pre-emergence efficacy, DIGSA; conditions: scored after about 3 weeks
Method in brief: as §3

Row | Structure (SMILES) | Pre-emergence efficacy against STEME (Stellaria media (STEME); dosage 80 g/ha) | Pre-emergence efficacy against STEME (Stellaria media (STEME); dosage 320 g/ha) | Pre-emergence efficacy against STEME (Stellaria media (STEME); dosage 1280 g/ha) | Post-emergence efficacy against AMARE ([1]; 80 g/ha) | Post-emergence efficacy against AMARE ([1]; 320 g/ha) | Post-emergence efficacy against AMARE ([1]; 1280 g/ha) | Post-emergence efficacy against VERPE (Veronica persica (VERPE) [2]; 80 g/ha) | Post-emergence efficacy against VERPE (Veronica persica (VERPE) [2]; 320 g/ha) | Post-emergence efficacy against VERPE (Veronica persica (VERPE) [2]; 1280 g/ha) | Pre-emergence efficacy against ABUTH ([3]; 320 g/ha) | Pre-emergence efficacy against VERPE in % (Veronica persica (VERPE) [4]; 320 g/ha) | Pre-emergence efficacy against VERPE in % (Veronica persica (VERPE) [4]; 1280 g/ha) | Pre-emergence efficacy against VERPE (Veronica persica (VERPE) [4]) | Pre-emergence efficacy against SETVI (Setaria viridis (SETVI); 80 g/ha) | Pre-emergence efficacy against SETVI (Setaria viridis (SETVI); 320 g/ha) | Post-emergence efficacy against PHBPU in % ([5]; application rate 320 g/ha) | Pre-emergence efficacy against DIGSA ([6]; 80 g/ha) | Pre-emergence efficacy against DIGSA ([6]; 320 g/ha) | Pre-emergence efficacy against ABUTH ([3]; 80 g/ha) | Post-emergence efficacy against PHBPU in % ([5]; application rate 80 g/ha)
1 | O=S(=O)(CCCCl)Oc1ccccc1Oc1ncc(F)cn1 [Example I-5] | 90% | 100% | 100% | 100% | 100% | 100% | 100% | 100% | 100% | 100% | 100% | 100% | 90% | 90% | 100% | 80% | – | – | – | –
2 | Cc1cccc(OS(=O)(=O)CCCCl)c1Oc1ncc(Cl)cn1 [Example I-12] | – | 100% | 100% | – | 90% | 100% | – | – | 90% | 90% | 90% | 100% | – | – | – | 90% | 90% | 100% | 80% | 90%
3 | O=S(=O)(CCCCl)Oc1c(F)cccc1Oc1ncc(Cl)cn1 [Example I-14] | 100% | 100% | 100% | 100% | 100% | 100% | 100% | 100% | 100% | 100% | 100% | 100% | 100% | 100% | 100% | 100% | – | – | 90% | 100%
4 | O=S(=O)(CCCC(F)(F)F)Oc1c(F)cccc1Oc1ncc(F)cn1 [Example I-42] | 100% | 100% | 100% | – | – | – | – | – | – | 100% | 100% | 100% | 100% | 100% | 100% | 100% | 100% | 100% | 100% | 100%
5 | O=S(=O)(CCC(F)(F)F)Oc1c(Br)cccc1Oc1ncc(F)cn1 [Example I-43] | – | 100% | 100% | – | – | – | – | – | – | 100% | 100% | 100% | – | 100% | 100% | 90% | – | 100% | 80% | 80%
6 | Cc1cccc(Oc2ncc(F)cn2)c1OS(=O)(=O)CCCC(F)(F)F [Example I-46] | 90% | 100% | 100% | – | – | – | – | – | – | 100% | 90% | 100% | 90% | 100% | 100% | 90% | 100% | 100% | 100% | 80%
7 | O=S(=O)(CCC(F)=C(F)F)Oc1c(F)cccc1Oc1ncc(Cl)cn1 [Example I-70] | – | – | – | – | – | – | – | – | – | 100% | – | – | – | 90% | 100% | 100% | 100% | 100% | 80% | 80%
8 | N#Cc1cccc(Oc2ncc(Cl)cn2)c1OS(=O)(=O)CCCC(F)(F)F [Example I-81] | – | – | – | – | – | – | – | – | – | 100% | – | – | – | 100% | 100% | 100% | 100% | 100% | – | 90%
